These results are taken from patent US10166216B2 (Rigel Pharmaceuticals, Inc., priority 2006, dated 2019).

By IC50 is commonly meant the point on the concentration scale where inhibition reaches its midpoint. Read a high IC50 as a need for much substance.

Axl, sequence (P30530 26-894): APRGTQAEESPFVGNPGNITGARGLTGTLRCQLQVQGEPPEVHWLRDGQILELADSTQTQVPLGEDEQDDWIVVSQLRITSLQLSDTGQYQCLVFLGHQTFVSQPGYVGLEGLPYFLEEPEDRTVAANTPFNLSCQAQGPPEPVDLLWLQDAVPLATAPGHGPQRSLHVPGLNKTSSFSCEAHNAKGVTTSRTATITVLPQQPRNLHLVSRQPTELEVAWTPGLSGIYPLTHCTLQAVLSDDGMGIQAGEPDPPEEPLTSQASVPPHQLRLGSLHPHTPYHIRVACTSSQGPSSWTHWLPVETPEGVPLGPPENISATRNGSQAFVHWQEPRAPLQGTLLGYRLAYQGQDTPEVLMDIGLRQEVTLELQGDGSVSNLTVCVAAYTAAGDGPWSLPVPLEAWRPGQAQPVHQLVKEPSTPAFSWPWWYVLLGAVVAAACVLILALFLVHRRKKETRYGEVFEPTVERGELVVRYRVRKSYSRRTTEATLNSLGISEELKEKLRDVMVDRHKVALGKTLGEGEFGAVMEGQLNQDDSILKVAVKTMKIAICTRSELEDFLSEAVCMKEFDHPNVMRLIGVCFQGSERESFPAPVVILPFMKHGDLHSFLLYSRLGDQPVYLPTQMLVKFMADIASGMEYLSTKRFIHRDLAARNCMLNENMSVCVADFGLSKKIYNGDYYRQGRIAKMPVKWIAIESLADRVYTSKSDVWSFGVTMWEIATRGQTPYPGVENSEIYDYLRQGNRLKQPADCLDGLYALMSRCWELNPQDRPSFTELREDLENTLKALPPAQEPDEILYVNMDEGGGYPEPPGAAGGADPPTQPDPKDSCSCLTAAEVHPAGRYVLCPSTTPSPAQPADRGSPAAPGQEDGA

One assay has as its target Axl (Homo sapiens (Human), UniProt P30530). The experiment in a line: Phospho-Akt in-cell Western assay (Axl-antibody cross-linking stimulation). It counts as cell-based. The conditions noted are these: inhibition of Axl activity, Hela cells, phospho-Akt readout; Table 4, formula (Ib2). In outline: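 HeLa cells on poly-L-lysine, starved 24 hrs with Axl/Fc, pre-treated with compound 1 hr at 37° C., then stimulated 5 min with Axl primary/secondary antibody cluster. Fixed cells probed for phospho-Akt by chemiluminescent in-cell Western; signal normalized to crystal violet cell number.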
Take `Nc1nc(Nc2ccc(N3CCN(C4CCCC4)CC3)c(F)c2)n(-c2nc3ccccc3c3ccccc23)n1` [Compound 205, 1-(phenanthridin-6-yl)-N^5-(3-fluoro-4-(4-cyclopentylpiperazin-1-yl)phenyl)-1H-1,2,4-triazole-3,5-diamine]: the concentration for half-maximal inhibition (IC50) is less than 1 µM.

Still in this assay, the particulars now being: inhibition of Axl activity, Hela cells, phospho-Akt readout; Table 5, formula (Ia3).
With `COc1cc2ncnc(-n3nc(Nc4ccc(C(=O)N5CCN(C6CCCC6)CC5)cc4)nc3N)c2cc1OC` [Compound 206, 1-(6,7-dimethoxyquinazolin-4-yl)-N^3-(4-(4-(cyclopentyl)piperazin-1-ylcarbonyl)phenyl)-1H-1,2,4-triazole-3,5-diamine], the IC50 is less than 1 µM.

With `Cc1csc2c(-n3nc(Nc4ccc(C(=O)N5CCN(C6CCCC6)CC5)cc4)nc3N)ncnc12` [Compound 207, 1-(7-methylthieno[3,2-d]pyrimidin-4-yl)-N^3-(4-(4-(cyclopentyl)piperazin-1-ylcarbonyl)phenyl)-1H-1,2,4-triazole-3,5-diamine], the IC50 was less than 1 µM.

`Cc1csc2c(-n3nc(Nc4ccc(C(=O)NCCN5CCCC5)cc4)nc3N)nc(Cl)nc12` [Compound 208, 1-(7-methyl-2-chlorothieno[3,2-d]pyrimidin-4-yl)-N^3-(4-((2-(pyrrolidin-1-yl)ethyl)aminocarbonyl)phenyl)-1H-1,2,4-triazole-3,5-diamine] came in with an IC50 of less than 1 µM.

In the case of `COc1cc2ncnc(-n3nc(Nc4ccc(N5CCC(N6CCCCC6)CC5)c(F)c4)nc3N)c2cc1OC` [Compound 209, 1-(6,7-dimethoxyquinazolin-4-yl)-N^3-(3-fluoro-4-(4-piperidin-1-ylpiperidin-1-yl)phenyl)-1H-1,2,4-triazole-3,5-diamine], the IC50 is less than 1 µM.

The compound `Cc1csc2c(-n3nc(Nc4ccc(N5CCC(N6CCCCC6)CC5)c(F)c4)nc3N)nc(Cl)nc12` [Compound 210, 1-(7-methyl-2-chlorothieno[3,2-d]pyrimidin-4-yl)-N^3-(3-fluoro-4-(4-piperidin-1-ylpiperidin-1-yl)phenyl)-1H-1,2,4-triazole-3,5-diamine] showed an IC50 of less than 1 µM.

Compound `CCN(CC)C1CCN(c2ccc(Nc3nc(N)n(-c4nc(Cl)nc5c(C)csc45)n3)cc2F)C1` (stereo not shown) [Compound 211, 1-(7-methyl-2-chlorothieno[3,2-d]pyrimidin-4-yl)-N^3-(3-fluoro-4-(3-diethylaminopyrrolidin-1-yl)phenyl)-1H-1,2,4-triazole-3,5-diamine] returned a 50% inhibitory concentration (IC50) of less than 1 µM.

In turn, `CN1CCC(c2ccc(Nc3nc(N)n(-c4nc5ccccc5c5ccccc45)n3)cc2)CC1` [Compound 213, 1-(phenanthridin-6-yl)-N^3-(4-(1-methylpiperidin-4-yl)phenyl)-1H-1,2,4-triazole-3,5-diamine] returned a concentration for half-maximal inhibition (IC50) of less than 1 µM.

In the case of `Cc1cc(Nc2nc(N)n(-c3nc4ccccc4c4ccccc34)n2)ccc1N1CCC(N2CCCC2)CC1` [Compound 214, 1-(phenanthridin-6-yl)-N^3-(3-methyl-4-(4-pyrrolidin-1-ylpiperidin-1-yl)phenyl)-1H-1,2,4-triazole-3,5-diamine], the IC50 is less than 1 µM.

Regarding `COc1cc2ncnc(-n3nc(Nc4ccc(N5Cc6ccccc6C5)c(F)c4)nc3N)c2cc1OC` [Compound 216, 1-(6,7-dimethoxyquinazolin-4-yl)-N^3-(3-fluoro-4-(isoindolin-2-yl)phenyl)-1H-1,2,4-triazole-3,5-diamine], the IC50 is greater than 20 µM.

`CC(C)c1ccc(-n2nc(Nc3ccc(N4CCOCC4)cc3)nc2N)cc1` [Compound 218, 1-(4-isopropylphenyl)-N^3-(4-morpholinophenyl)-1H-1,2,4-triazole-3,5-diamine]: the IC50 is greater than 20 µM.

Staying with this assay, now noted: inhibition of Axl activity, Hela cells, phospho-Akt readout; Table 7, formula (Ia4).
On to `Cc1csc2c(-n3nc(Nc4ccc5c(c4)CCC(N4CCCC4)CC5)nc3N)nc(Cl)nc12` (stereo not shown) [Compound 219, 1-(7-methyl-2-chlorothieno[3,2-d]pyrimidin-4-yl)-N^3-(7-pyrrolidin-1-yl-6,7,8,9-tetrahydro-5H-benzo[7]annulene-2-yl)-1H-1,2,4-triazole-3,5-diamine], for which the IC50 was less than 1 µM.

`COc1cc2ncnc(-n3nc(Nc4ccc5c(c4)CCC(N4CCCC4)CC5)nc3N)c2cc1OC` (stereo not shown) [Compound 220, 1-(6,7-dimethoxy-quinazolin-4-yl)-N^3-(7-pyrrolidin-1-yl-6,7,8,9-tetrahydro-5H-benzo[7]annulene-2-yl)-1H-1,2,4-triazole-3,5-diamine] came in with a half-maximal inhibitory concentration (IC50) of less than 1 µM.

As to `Cc1csc2c(-n3nc(Nc4ccc5c(c4)CCC(N(C)C4CC6CCC4C6)CC5)nc3N)nc(Cl)nc12` (stereo not shown) [Compound 221, 1-(7-methyl-2-chlorothieno[3,2-d]pyrimidin-4-yl)-N^3-(7-(N-methyl-N-bicyclo[2.2.1]heptan-2-yl)amino-6,7,8,9-tetrahydro-5H-benzo[7]annulene-2-yl)-1H-1,2,4-triazole-3,5-diamine], the IC50 is less than 1 µM.

Regarding `Cc1csc2c(-n3nc(Nc4ccc5c(c4)CCC(NC4CC6CCC4C6)CC5)nc3N)nc(Cl)nc12` (stereo not shown) [Compound 222, 1-(7-methyl-2-chlorothieno[3,2-d]pyrimidin-4-yl)-N^3-(7-(N-bicyclo[2.2.1]heptan-2-yl)amino-6,7,8,9-tetrahydro-5H-benzo[7]annulene-2-yl)-1H-1,2,4-triazole-3,5-diamine], the IC50 was less than 1 µM.

On to `COc1cc2ncnc(-n3nc(Nc4ccc5c(c4)CCC(NC4CC6CCC4C6)CC5)nc3N)c2cc1OC` (stereo not shown) [Compound 223, 1-(6,7-dimethoxyquinazolin-4-yl)-N^3-(7-(N-bicyclo[2.2.1]heptan-2-yl)amino-6,7,8,9-tetrahydro-5H-benzo[7]annulene-2-yl)-1H-1,2,4-triazole-3,5-diamine], for which the IC50 is less than 1 µM.

Staying with this assay, now noted: inhibition of Axl activity, phospho-Akt in-cell Western assay.
As to `Nc1nc(Nc2ccc(N3CCN(C4CCCC4)CC3)c(F)c2)nn1-c1nc2ccccc2c2ccccc12` [Compound 192, 1-(phenanthridin-6-yl)-N^3-(3-fluoro-4-(4-cyclopentylpiperazin-1-yl)phenyl)-1H-1,2,4-triazole-3,5-diamine], the IC50 is less than 1 µM.

`Cc1csc2c(-n3nc(Nc4ccc(N5CCN(C6CC7CCC6C7)CC5)c(F)c4)nc3N)ncnc12` (stereo not shown) [Compound 194] showed an IC50 of less than 1 µM.

For the compound `Nc1nc(Nc2ccc(N3CCN(C4CC5CCC4C5)CC3)c(F)c2)nn1-c1ncnc2ccsc12` (stereo not shown) [Compound 195, 1-(thieno[3,2-d]pyrimdin-4-yl)-N^3-(3-fluoro-4-(4-(bicyclo[2.2.1]heptan-2-yl)-piperazin-1-yl)phenyl)-1H-1,2,4-triazole-3,5-diamine], the IC50 is less than 1 µM.

On to `Nc1nc(Nc2ccc(N3CCN(C4CC5CCC4C5)CC3)c(F)c2)nn1-c1ncnc2sccc12` (stereo not shown) [Compound 196, 1-(thieno[2,3-d]pyrimidin-4-yl)-N^3-(3-fluoro-4-(4-(bicyclo[2.2.1]heptan-2-yl)-piperazin-1-yl)phenyl)-1H-1,2,4-triazole-3,5-diamine], for which the concentration for half-maximal inhibition (IC50) was less than 1 µM.

Regarding `Nc1nc(Nc2ccc(N3CCN(C4CC5CCC4C5)CC3)c(F)c2)nn1-c1ncnc2ccc(F)cc12` (stereo not shown) [Compound 197, 1-(6-fluoroquinazolin-4-yl)-N^3-(3-fluoro-4-(4-(bicyclo[2.2.1]heptan-2-yl)-piperazin-1-yl)phenyl)-1H-1,2,4-triazole-3,5-diamine], the IC50 is less than 1 µM.

`Cc1nnc(-n2nc(Nc3ccc(N4CCN(C5CC6CCC5C6)CC4)cc3)nc2N)c2sccc12` (stereo not shown) [Compound 198, 1-(4-methylthieno[3,2-d]pyridazin-7-yl)-N^3-(4-(4-(bicyclo[2.2.1]heptan-2-yl)-piperazin-1-yl)phenyl)-1H-1,2,4-triazole-3,5-diamine] yielded a half-inhibitory concentration (IC50) of less than 1 µM.

The compound `Cc1cc(Nc2nc(N)n(-c3ncnc4c(C)csc34)n2)ccc1N1CCN(C2CC3CCC2C3)CC1` (stereo not shown) [Compound 199, 1-(7-methylthieno[3,2-d]pyrimidin-4-yl)-N^3-(3-methyl-4-(4-(bicyclo[2.2.1]heptan-2-yl)-piperazin-1-yl)phenyl)-1H-1,2,4-triazole-3,5-diamine] came in with an IC50 of less than 1 µM.

In turn, `Cc1cc(N2CCN(C3CC4CCC3C4)CC2)ccc1Nc1nc(N)n(-c2nc(Cl)nc3c(C)csc23)n1` (stereo not shown) [Compound 200, 1-(7-methyl-2-chlorothieno[3,2-d]pyrimidin-4-yl)-N^3-(2-methyl-4-(4-(bicyclo[2.2.1]heptan-2-yl)-piperazin-1-yl)phenyl)-1H-1,2,4-triazole-3,5-diamine] had an IC50 of 1 to 10 µM.

Turning to `Cc1csc2c(-n3nc(Nc4ccc(N5CCN([C@H]6C[C@@H]7CC[C@H]6C7)CC5)c(F)c4)nc3N)ncnc12` [Compound 201, 1-(7-methylthieno[3,2-d]pyrimidin-4-yl)-N^3-(3-fluoro-4-(4-((1S,2S,4R)-bicyclo[2.2.1]heptan-2-yl)-piperazin-1-yl)phenyl)-1H-1,2,4-triazole-3,5-diamine], the IC50 is less than 1 µM.

In the case of `Cc1cc(N2CCN(C3CC4CCC3C4)CC2)ccc1Nc1nc(N)n(-c2ncnc3c(C)csc23)n1` (stereo not shown) [Compound 202, 1-(7-methylthieno[3,2-d]pyrimidin-4-yl)-N^3-(2-methyl-4-(4-(bicyclo[2.2.1]heptan-2-yl)-piperazin-1-yl)phenyl)-1H-1,2,4-triazole-3,5-diamine], the IC50 was less than 1 µM.

`Cc1nnc(-n2nc(Nc3ccc(N4CCN(C5CC6CCC5C6)CC4)c(F)c3)nc2N)c2sccc12` (stereo not shown) [Compound 203, 1-(4-methylthieno[3,2-d]pyridazin-7-yl)-N^3-(3-fluoro-4-(4-(bicyclo[2.2.1]heptan-2-yl)-piperazin-1-yl)phenyl)-1H-1,2,4-triazole-3,5-diamine] displayed an IC50 of less than 1 µM.

`Cc1cc(Nc2nc(N)n(-c3nnc(C)c4ccsc34)n2)ccc1N1CCN(C2CC3CCC2C3)CC1` (stereo not shown) [Compound 217, 1-(4-methylthieno[3,2-d]pyridazin-7-yl)-N^3-(3-methyl-4-(4-(bicyclo[2.2.1]heptan-2-yl)-piperazin-1-yl)phenyl)-1H-1,2,4-triazole-3,5-diamine] came in with a concentration for half-maximal inhibition (IC50) of less than 1 µM.
